One may read the IC50 as the midpoint of a concentration-inhibition curve.

The test system of data set [1] is human telomerase. Briefly: TRAP assay of telomerase activity in HME50-5 cell extracts preincubated with PNA or PS oligomer. The class given is biochemical. The procedure: Cells were derived from a human immortal primary breast epithelial cell line (HME50-5) that expresses telomerase at high levels. Cell extracts were obtained by resuspending a 100,000 cell pellet into 200 μl of lysis buffer (0.5% 3-[3-cholamidopropyl-dimethylammonio]-1-propane-sulfonate (CHAPS), 10 mM Tris-HCl, pH 7.5, 1 mM ethylenebis(oxyethylene-nitrilo)tetraacetic acid (EGTA), 5 mM β-mercaptoethanol, 0.1 mM 4-(2-aminoethyl)benzenesulfonyl fluoride (AEBSF), 10% glycerol). The suspension was mixed by pipetting at least three times and kept on ice for 30 minutes. The lysate was centrifuged at 16,000×g for 20 minutes at 4° C., and 160 μl of the supernatant was collected. The cells were then diluted 10-fold to obtain a 50 cell equivalent/μl stock suspension, aliquoted, frozen in liquid nitrogen, and stored at -80° C. These aliquots were utilized throughout our experiments to ensure consistency.
The tubes were transferred to a PCR thermocycler set at 94° C. for 3 minutes to melt the wax barrier, cycled 30 times (30 seconds at 95° C., 30 seconds at 55° C. and 30 seconds at 72° C.) followed by a 3 minute extension at 72° C. The samples were frozen at -80° C. and the wax barrier removed. […] Gels were fixed for 30 minutes (1:1 ethanol: water, 0.5 M NaCl, 40 mM NaOAc, pH 4.2) then exposed to a phosphorimager screen for quantitation. […] Data was processed using ImageQuant software version 3.3.
Varied concentrations of PNA were added to cell extracts containing the TS primer. Telomerase products were visualized by gel electrophoresis and the extent of inhibition was quantified by phosphorimager analysis by evaluating each lane of the gels separately. The lanes were further separated into two areas for evaluation; one for the internal amplification standard (ITAS) and the other for all telomerase products. […] This ratio was taken to indicate telomerase activity with the ratio of the positive control being assigned 100% activity. The extent of inhibition as a function of the concentration of the added PNA was plotted and these graphs were utilized to derive the IC50.
Telomerase activity was measured using the telomeric repeat amplification protocol (TRAP). Rather than measure the change in chromosome length over time, a process that requires weeks to produce definitive results and measures telomerase activity only indirectly, the TRAP assay measures the elongation of a short oligonucleotide primer (TS primer) known to act as an efficient substrate of telomerase. Cell extracts from a human immortal breast epithelial cell line, HME50-5, expressing telomerase were preincubated with PNAs to allow recognition of complementary sequences by Watson-Crick base-pairing. The TS primer was then added to initiate chain elongation by telomerase. Following elongation of the TS primer, the mixture was transferred to a thermocycler and polymerase chain reaction (PCR) was performed to amplify the products. Two potential template DNAs were present, and amplification products were primed from either an internal amplification standard (ITAS) or from the product of telomerase elongation of the TS primer. These amplification products were separated by gel electrophoresis and quantitated separately. A ratio of the amount of amplified products of telomerase activity to that derived from amplification of the ITAS standard was determined and compared to a positive control to which no PNA was added. This comparison allowed calculation of the inhibition of telomerase activity due to a given concentration of PNA.

In data set [2] the test system is human telomerase. Briefly: TRAP assay of telomerase activity in permeabilized HME50-5 cells. The data set is classed as cell-based. Conditions: 37° C., read-out: IC50 (nM) Perm. Cells 37° C. The procedure: To examine the ability of PNAs to inhibit telomerase activity within permeabilized cells HME50-5 cells were treated with a buffered solution containing a relatively low concentration of detergent (20 mM Tris-HCl, pH 8.3, 1.5 mM MgCl2, 68 mM KCl, 0.5% Tween 20, 1 mM EGTA, 5.0% glycerol, and 0.1 mM AEBSF). The telomerase activity in these cells was not further purified, and permeabilized cells were incubated with PNA and PS oligomers prior to assay for telomerase activity.
A further control experiment was performed to ensure that the observed. inhibition was due to PNA entry into permeabilized cells The TRAP assay was utilized to compare the level of telomerase activity retained inside permeabilized cells to activity which leaks into solution. This control was necessary to ensure that the observed inhibition was due to PNA inhibition of telomerase within cells. Permeabilized cells were centrifuged and the cell pellet and the cell-free supernatant were separately examined for telomere activity using the TRAP assay. Greater than 80% of telomerase activity remained associated with the cell pellet after this mild treatment, confirming that telomerase is largely retained inside permeabilized cells.
Telomerase activity was determined using the telomere repeat amplification protocol (TRAP) assay essentially as described (Piatyszek et al. (1995) Methods in Cell Science 17: 1) with the modification that the cellular extract was preincubated at 25° C. for 30 minutes with the PNA at the concentrations indicated. Following preincubation 3 μl of the cellular extract plus PNA was added to a PCR tube containing 46 μl of reaction buffer (20 mM Tris-HCl, pH 8.3, 1.5 MM MgCl2, 68 MM KCl, 0.05% Tween-20, 1 mM EGTA), 50 μM dNTPs, 0.1 μg TS primer (5'-[…]-3' (SEQ ID NO:23)), 5 attg ITAS template (25), 0.5 μM T4 gene 32 protein, 2 Units Taq polymerase, 4 μCi^32 P-α dCTP) above a wax barrier separating 0.1 μg of the CX, reverse primer (5'-[…]-3' (SEQ ID NO:24)), and incubated for 30 minutes to allow telomerase to elongate the TS primer. The tubes were transferred to a PCR thermocycler set at 94° C. for 3 minutes to melt the wax barrier, cycled 30 times (30 seconds at 95° C., 30 seconds at 55° C. and 30 seconds at 72° C.) followed by a 3 minute extension at 72° C. The samples were frozen at -80° C. and the wax barrier removed. The solution containing the PCR products (40 μl) was added to 3.3 μl of loading buffer and 20 μl was loaded onto a 10% non-denaturing polyacrylamide gel and separated by electrophoresis at 180 volts for 45 minutes followed by 280 volts for 1 hour and 45 minutes. Gels were fixed for 30 minutes (1:1 ethanol: water, 0.5 M NaCl, 40 mM NaOAc, pH 4.2) then exposed to a phosphorimager screen for quantitation. Phosphorimager analysis was performed utilizing a Molecular Dynamics model 425F phosphorimager. Data was processed using ImageQuant software version 3.3.
Varied concentrations of PNA were added to cell extracts containing the TS primer. Telomerase products were visualized by gel electrophoresis and the extent of inhibition was quantified by phosphorimager analysis by evaluating each lane of the gels separately. The lanes were further separated into two areas for evaluation; one for the internal amplification standard (ITAS) and the other for all telomerase products. A ratio of telomerase products to ITAS was determined and compared to a positive control in which no PNA had been added. This ratio was taken to indicate telomerase activity with the ratio of the positive control being assigned 100% activity. The extent of inhibition as a function of the concentration of the added PNA was plotted and these graphs were utilized to derive the IC50.
The potential for such interactions to interfere with the location of hTR by PNAs was evaluated by examining elongation under conditions more similar to those in vivo. PNAs were applied to HME50-5 cells that had been mildly permeabilized. […]

Setting [3] is: HME50-5 cell extract, 37° C., read-out: IC50 (nM) Cell Extract 37° C.
Setting [4] is: HME50-5 cell extract, 25° C., 30 min preincubation, read-out: IC50 (nM) Cell Extract 25° C.

Take “PNA (VII): complementary PNA, sequence CTCAGTTAGGGTTAG (all peptide nucleic acid (PNA))”: the half-maximal inhibitory concentration (IC50) in the data set on human telomerase [1] (setting [3]) is 70 nM.
As to “PS (II): complementary phosphorothioate oligonucleotide CTCAGTTAGGGTTAG (all phosphorothioate, sugars by position and methylation of C not given here) [reference compound]”, the IC50 in the data set with human telomerase [1] (setting [4]) was found to be 100 nM; with human telomerase [1] (setting [3]) it was 700 nM.
In the case of “PNA (XIV): non-complementary PNA, sequence AGGATCTTCACCTAGATCCT (all peptide nucleic acid (PNA)) [reference compound]”, the 50% inhibitory concentration (IC50) in the data set on human telomerase [1] (setting [4]) and in the data set with human telomerase [1] (setting [3]) was over 33000 nM throughout. Further, the “inhibition of human telomerase activity (in words)” value with human telomerase [1] (cell extract) was “did not detectably inhibit”.
For “PS (III): complementary phosphorothioate oligonucleotide TAGGGTTAGACAA (all phosphorothioate, sugars by position and methylation of C not given here) [reference compound]”, the results for the concentration for half-maximal inhibition (IC50) with human telomerase [1] (setting [4]) and in the data set on human telomerase [1] (setting [3]) were 50 nM and 200 nM, respectively.
Regarding “PNA (XV): non-complementary PNA, sequence TGTAAGGAACTAG (all peptide nucleic acid (PNA)) [reference compound]”, the IC50 in the data set on human telomerase [1] (setting [4]) and with human telomerase [1] (setting [3]) was over 33000 nM throughout. Besides, the “inhibition of human telomerase activity (in words)” value in the data set on human telomerase [1] (cell extract) is “did not detectably inhibit”.
As for “PNA (IX): complementary PNA, sequence TAGGGTTAGAC (all peptide nucleic acid (PNA))”, the half-inhibitory concentration (IC50) is about 10 nM with human telomerase [1] (HME50-5 cell extract, 25° C., 30 min preincubation, listed as PNA IX, read-out: IC50 (nM) Cell Extract 25° C.) and 10 nM in the data set on human telomerase [1] (setting [4]).
For “PNA (XIII): complementary PNA, sequence GTTAGGGTTAGACAA (all peptide nucleic acid (PNA))”, the IC50 in the data set on human telomerase [1] (setting [3]) was 50 nM.
Consider “PNA (VI): complementary PNA, sequence CAGTTAGGGTTAG (all peptide nucleic acid (PNA))”, for which the IC50 in the data set with human telomerase [1] (setting [4]) is 10 nM; in the data set with human telomerase [1] (setting [3]) it was 50 nM; with human telomerase [2] it was 75 nM.
Regarding “PNA (XI): complementary PNA, sequence GGGTTAGACAA (all peptide nucleic acid (PNA))”, the 50% inhibitory concentration (IC50) is about 10 nM in the data set with human telomerase [1] (HME50-5 cell extract, 25° C., 30 min preincubation, listed as PNA XI, read-out: IC50 (nM) Cell Extract 25° C.); 10 nM in the data set on human telomerase [1] (setting [4]); 50 nM with human telomerase [1] (setting [3]); 70 nM in the data set on human telomerase [2].
Turning to “PNA (V): complementary PNA, sequence AGTTAGGGTTAG (all peptide nucleic acid (PNA))”, the IC50 came to 10 nM in the data set with human telomerase [1] (setting [4]), 75 nM in the data set with human telomerase [1] (setting [3]) and 370 nM in the data set with human telomerase [2].
Regarding “PNA (VIII): complementary PNA, sequence CCCTTCTCAGTTAGGGTTAG (all peptide nucleic acid (PNA))”, the IC50 in the data set with human telomerase [1] (setting [4]) came out at 200 nM; with human telomerase [1] (setting [3]) it was 300 nM; in the data set with human telomerase [2], 400 nM.
As to “PNA (III): complementary PNA, sequence TTAGGGTTAG (all peptide nucleic acid (PNA))”, the half-maximal inhibitory concentration (IC50) was 200 nM in the data set on human telomerase [1] (setting [4]); 400 nM with human telomerase [1] (setting [3]); 200 nM with human telomerase [1] (cell extract, 30 min preincubation, read-out: IC50 for inhibition of telomerase); 500 nM with human telomerase [2].
Turning to “PS (I): complementary phosphorothioate oligonucleotide 5'-GTTAGGGTTAG-3' (all phosphorothioate, sugars by position not given here) [reference compound]”, the IC50 in the data set with human telomerase [1] (setting [4]) came to 75 nM; in the data set on human telomerase [1] (setting [3]), 250 nM.
Regarding “PNA (X): complementary PNA, sequence GTTAGGGTTAGAC (antisense; all peptide nucleic acid (PNA))”, the half-maximal inhibitory concentration (IC50) was about 10 nM in the data set with human telomerase [1] (HME50-5 cell extract, 25° C., 30 min preincubation, listed as PNA X, read-out: IC50 (nM) Cell Extract 25° C.) and 10 nM in the data set on human telomerase [1] (setting [4]).
Regarding “PS (V): non-complementary phosphorothioate oligonucleotide TGTAAGGAACTAG (all phosphorothioate, sugars by position and methylation of C not given here) [reference compound]”, the results for the IC50 in the data set with human telomerase [1] (setting [4]) and in the data set on human telomerase [1] (setting [3]) were 100 nM and 450 nM, respectively.
With “PNA (IV): complementary PNA, sequence GTTAGGGTTAG (all peptide nucleic acid (PNA))”, the IC50 with human telomerase [2] came out at 300 nM.
On to “PNA (XII): complementary PNA, sequence TAGGGTTAGACAA (all peptide nucleic acid (PNA))”, for which the “preincubation time to reach maximal inhibition” value is given as “ninety” with human telomerase [1] (300 pM PNA) and “five” in the data set on human telomerase [1] (200 nM PNA). In addition, the 50% inhibitory concentration (IC50) in the data set with human telomerase [1] (setting [4]) amounted to 0.9 nM. Moreover, the “reversibility of inhibition once maximal inhibition attained” value with human telomerase [1] (lengthy incubation with primer and nucleotides) is recorded as “effectively irreversible”.
For “PS (IV): non-complementary phosphorothioate oligonucleotide AGGATCTTCACCTAGATCCT (all phosphorothioate, sugars by position and methylation of C not given here) [reference compound]”, the figures for the IC50 with human telomerase [1] (setting [4]) and in the data set on human telomerase [1] (setting [3]) were 100 nM and 400 nM, respectively.
